Reference: patent US20230286956A1 (DUKSUNG WOMEN'S UNIVERSITY INDUSTRY-ACADEMIC COOPERATION …, priority 2020, published 2023)

Legend:
[1] = tested on: wild-type red mold strain GZ3639; experiment: Inhibition of spore germination / reactive oxygen species generation through NOX enzyme inhibition in red mold; format: cell-based; conditions: 24 h, read-out: IC50 (µM), compound concentration at which the spore germination inhibition rate was 50%
Procedure: When NADPH oxidase (NOX), which is involved in the generation of reactive oxygen species in red mold, is inhibited, normal mycelial growth is inhibited, abnormal form of monocyclic conidia is formed, and germination is inhibited. The abnormal phenotype caused by the reduction of reactive oxygen species in red mold can be easily observed under an optical microscope. Through this, the ability to inhibit generation of reactive oxygen species through NOX inhibition was evaluated.
Specifically, for the evaluation of compound activity, 0.1 mM of the compound was added to a minimum medium (MM20) spore suspension diluted to ⅕. Spores ([…]) of wild-type red mold strain GZ3639 were inoculated into the medium and cultured at 25° C. for 24 h, followed by microscopic observation. Compounds having a germination inhibition rate and microcycle conidiation to be 50% or more of those in normal germination were selected, and their activities were evaluated at concentrations of 50 µM, 25 µM, and 10 µM. At this time, the activity of substances having a germination inhibition rate of 95% at 10 µM was further evaluated at concentrations of 5 µM, 1 µM, 0.5 µM, and 0.1 µM. Based on the result of this evaluation, the compound concentration (inhibitory concentration 50%, IC50) at which the spore germination inhibition rate was 50% was determined.

[2] = in vivo; design: species or system SD rats; conditions: SD, rat, po
Procedure: The bioavailability (BA) and pharmacokinetic properties of the compounds of the present invention were evaluated in an animal model. The compounds were administered to 8-week-old SD rats (300 to 350 g) at a dose of 2 to 5 mg/kg through oral and intravenous administration routes. After administration, blood was collected at regular time intervals and the time course of blood concentration was analyzed.

[3] = tested on: substantia nigra dopaminergic neurons; experiment: Inhibition of dopaminergic nerve cell death in MPTP animal model of Parkinson's disease (tyrosine hydroxylase immunostaining); format: in vivo, C57B16/J mice; conditions: for survival rate of dopaminergic neurons, of that in the control group: 1 week before and after MPTP
Procedure: The dopaminergic neuronal cell protecting effect of the compound of the present invention was evaluated in an animal model of Parkinson’s disease. The animal model used was 7-week-old C57B16/J mice (23 to 25 g), to which MPTP (15 mg/kg) was administered 4 times at 1.5 hour intervals. For 1 to 2 days after administration, behavior was noticeably slowed and gradually recovered. In 1 week after MPTP administration, behavior was almost normalized to a level similar to that of normal mice.
In order to evaluate the efficacy of the compounds of the present invention, Compounds 1aaa (Compound 1), lace (Compound 27), 1ahe (Compound 44) and 1aje (Compound 62) were each administered at a dose of 5 mg/kg for 1 week, then MPTP (15 mg/kg x 4 times) was injected. These compounds were additionally administered for 1 week, and then dopamine innervation in the substantia nigra region was analyzed through immunostaining.
Specifically, selegiline, 1aaa, lace, 1ahe, 1aje, and apocynin were administered at a dose of 5 mg/kg for 7 days, then MPTP (15 mg/kg x 4 times) was administered to induce damage to dopaminergic neurons. After 7 days of additional administration of the compounds at the same dose, the animals were sacrificed. Immunostaining was performed using tyrosine hydroxylase antibody to measure the survival rate of substantia nigra dopaminergic neurons. After immunostaining, the number of surviving dopaminergic neurons was analyzed. The results are illustrated in FIG. 8.
In order to evaluate the efficacy of the compounds of the present invention, Compounds 1abv (Compound 22), 1abw (Compound 23), and 1ahs (Compound 52) were each intraperitoneally administered at a dose of 5 mg/kg for 1 week or orally administered at a dose of 50 mg/kg, then MPTP (15 mg/kg x 4 times) was injected. These compounds were additionally administered for 1 week, and then dopamine innervation in the substantia nigra region was analyzed through immunostaining. The results are illustrated in FIG. 9.
(§1) In order to evaluate the dopaminergic neuroprotective effect of the compounds of the present invention, Compounds 1aja (Compound 59) and 1abk (Compound 17) were each intraperitoneally administered at a dose of 5 mg/kg for 1 week, then MPTP (15 mg/kg x 4 times) was injected. These compounds were additionally administered for 1 week. After immunostaining using brain slices from each group, surviving dopaminergic neurons were photographed under a microscope and analyzed. The results are illustrated in FIG. 10.
as §1, with “1ajs” for “1aja”, “63), 1ajy (Compound 67),” for “59)”, “1aqj” for “1abk”, “85)” for “17)”, “11.” for “10.”

[4] = Single acute toxicity evaluation 2 (2000 mg/kg oral); format: in vivo, ICR mice
Procedure: Acute toxicity properties after single administration of the compounds of the present invention were evaluated in an animal model.

[5] = tested on: MPTP-administered mice; experiment: Behavioral activity: beam test and challenge beam test in MPTP mice; format: in vivo; conditions: intraperitoneal 5 mg/kg
Procedure: In order to evaluate the behavioral activation by the compounds of the present invention, Compounds lace (Compound 27), 1ahe (Compound 44), and 1abv (Compound 22) were each intraperitoneally administered at a dose of 5 mg/kg for 1 week, then MPTP (15 mg/kg x 4 times) was injected. These compounds were additionally administered for 1 week. A beam test and a challenge beam test were conducted 1 day before and 2 days after MPTP administration, respectively. The results are illustrated in FIG. 12.
In order to evaluate the behavioral activation by the compounds of the present invention, Compounds 1ajs (Compound 63), 1ajy (Compound 67), and 1abw (Compound 23) were each intraperitoneally administered at a dose of 5 mg/kg for 1 week, then MPTP (15 mg/kg x 4 times) was injected. These compounds were additionally administered for 1 week. A beam test and a challenge beam test were conducted 2 days after MPTP administration. The results are illustrated in FIG. 13.

[6] = tested on: SH-SY5Y cell line; experiment: Cell viability (MTT assay) after MPP+ or rotenone; format: cell-based; conditions: 0.5 µM compound, then MPP+ (2 mM) or rotenone (2 µM) for 24 hours
Procedure: Specifically, the SH-SY5Y cell line was treated with 0.5 µM of Compound 1aaa (Compound 1), 1aca (Compound 24), lace (Compound 27), 1ahe (Compound 44) or 1aje (Compound 62) and then with MPP+ (2 mM) or rotenone (2 µM) for 24 hours. Cell viability in the case of being treated with each compound is illustrated in FIGS. 4 and 5.

[7] = Evaluations 3 and 4: intraperitoneal 5 mg/kg
[8] = Evaluation 2: intraperitoneal 5 mg/kg or oral 50 mg/kg
[9] = Evaluation 1: beam test and challenge beam test
[10] = Evaluation 2: beam test, 2 days after MPTP

CN1C(=[Se])N(c2ccccc2)C(=O)/C1=C\c1ccc(O)cc1O [Compound 1, 5-(2,4-dihydroxybenzylidene)-1-methyl-3-phenyl-2-selenoxoimidazolidine-4-on]
IC50 [1]: 20 µM | bioavailability [2]: 13%

Cc1ccc(N2C(=O)C(=Cc3ccc(N4CCCC4)cc3)N(C)C2=[Se])cc1 [Compound 1abk, 1-methyl-5-(4-pyrrolidine-1-yl)benzylidene-2-selenoxo-3-(4-tolyl)imidazolidine-4-on]
survival rate of dopaminergic neurons, of that in the control group [3, 7]: 66%

Cc1ccc(N2C(=O)C(=Cc3ccc(NCCOCCO)cc3)N(C)C2=[Se])cc1 [Compound 1abv]
change in body weight ([4]; day 0): 100 | change in body weight ([4]; day 2): 99.0 | change in body weight ([4]; day 4): 100.0 | change in body weight ([4]; day 8): 102.5 | change in body weight ([4]; day 10): 103.4 | change in body weight ([4]; day 14): 105.0 | survival rate of dopaminergic neurons, of that in the control group [3, 8]: 67.8% | reduction of time for mice to reach the home cage compared to MPTP administration group [5, 9]: ≥ 50%

Cc1ccc(N2C(=O)C(=Cc3ccc(NCCN4CCOCC4)cc3)N(C)C2=[Se])cc1 [Compound 1abw]
survival rate of dopaminergic neurons, of that in the control group [3, 8]: 72.3% | reduction of time for mice to reach the home cage compared to MPTP administration group [5, 10]: about 50%

CCc1ccc(N2C(=O)C(=Cc3ccc(O)cc3O)N(C)C2=[Se])cc1 [Compound 1aca]
cell viability / inhibition of cell death [6]: significantly inhibit cell death

CN1C(=[Se])N(CCc2ccccc2)C(=O)C1=Cc1cc(O)cc(O)c1 [Compound 1ahe]
change in body weight ([4]; day 0): 100 | change in body weight ([4]; day 2): 98.6 | change in body weight ([4]; day 4): 100.9 | change in body weight ([4]; day 8): 104.2 | change in body weight ([4]; day 10): 105.5 | change in body weight ([4]; day 14): 106.0 | cell viability / inhibition of cell death [6]: significantly inhibit cell death

CCCCCCN1C(=O)C(=Cc2ccc(O)cc2O)N(C)C1=[Se] [Compound 1aja]
change in body weight ([4]; day 0): 100 | change in body weight ([4]; day 2): 95.6 | change in body weight ([4]; day 4): 102.8 | change in body weight ([4]; day 8): 105.8 | change in body weight ([4]; day 10): 107.8 | change in body weight ([4]; day 14): 107.6 | survival rate of dopaminergic neurons, of that in the control group [3, 7]: 76%

CCCCCCN1C(=O)C(=Cc2cc(O)cc(O)c2)N(C)C1=[Se] [Compound 1aje]
cell viability / inhibition of cell death [6]: significantly inhibit cell death

CCCCCCN1C(=O)C(=Cc2ccc(N3CCOCC3)cc2)N(C)C1=[Se] [Compound 1ajs]
change in body weight ([4]; day 0): 100 | change in body weight ([4]; day 2): 94.3 | change in body weight ([4]; day 4): 91.9 | change in body weight ([4]; day 8): 96.7 | change in body weight ([4]; day 10): 101.6 | change in body weight ([4]; day 14): 99.4 | reduction of time for mice to reach the home cage compared to MPTP administration group [5, 10]: about 50%

CCCCCCN1C(=O)C(=Cc2ccc(NCCOCCF)cc2)N(C)C1=[Se] [Compound 1ajy]
survival rate of dopaminergic neurons, of that in the control group [3, 7]: 50.6% | reduction of time for mice to reach the home cage compared to MPTP administration group [5, 10]: about 50%

CN1C(=[Se])N(CCCN2CCOCC2)C(=O)C1=Cc1ccc(Cl)cc1 [Compound 1aqj]
change in body weight ([4]; day 0): 100 | change in body weight ([4]; day 2): 94.6 | change in body weight ([4]; day 4): 99.8 | change in body weight ([4]; day 8): 104.8 | change in body weight ([4]; day 10): 105.9 | change in body weight ([4]; day 14): 106.6 | survival rate of dopaminergic neurons, of that in the control group [3, 7]: 75.1%

Cc1ccc(N2C(=O)/C(=C\c3ccc(N4CCCCC4)cc3)N(C)C2=[Se])cc1 [Compound 15, 1-methyl-5-(4-piperidine-1-yl)benzylidene-3-(4-tolyl)-2-selenoxoimidazolidine-4-on]
IC50 [1]: 11 µM | bioavailability [2]: 11%

Cc1ccc(N2C(=O)/C(=C\c3ccc(N4CCN(CCO)CC4)cc3)N(C)C2=[Se])cc1 [Compound 21, 5-(4-(4-(2-hydroxyethyl)piperazine-1-yl)benzylidene)-1-methyl-2-selenoxo-3-(4-tolyl)imidazoline-4-on]
bioavailability [2]: 11%

Cc1ccc(N2C(=O)/C(=C\c3ccc(NCCOCCO)cc3)N(C)C2=[Se])cc1 [Compound 22, 5-(4-((2-(2-hydroxyethoxy)ethyl)amino)benzylidene)-1-methyl-2-selenoxo-3-(4-tolyl)imidazoline-4-on]
IC50 [1]: 2.3 µM | bioavailability [2]: 55%

CCc1ccc(N2C(=O)/C(=C\c3cc(O)cc(O)c3)N(C)C2=[Se])cc1 [Compound 27, 5-(3,5-dihydroxybenzylidene)-3-(4-ethylphenyl)-1-methyl-2-selenoxoimidazolidine-4-on]
IC50 [1]: 9 µM | bioavailability [2]: 31%

CN1C(=[Se])N(CCc2ccccc2)C(=O)/C1=C\c1cc(O)cc(O)c1 [Compound 44]
IC50 [1]: 1 µM | bioavailability [2]: 73%

CCCCCCN1C(=O)/C(=C\c2ccc(O)cc2O)N(C)C1=[Se] [Compound 59, 5-(2,4-dihydroxybenzylidene)-3-hexyl-1-methyl-2-selenoxoimidazolidine-4-on]
IC50 [1]: 0.68 µM | bioavailability [2]: 23%

CCc1ccc(N2C(=O)C(=Cc3cc(O)cc(O)c3)N(C)C2=[Se])cc1 [lace]
survival rate of substantia nigra dopaminergic neurons, of that in the control group ([3]; Evaluation 1: 5 mg/kg for 7 days, MPTP 15 mg/kg x 4, 7 further days): 79.6% | reduction of time for mice to reach the home cage compared to MPTP administration group [5, 9]: ≥ 50% | cell viability / inhibition of cell death [6]: significantly inhibit cell death
